Measured values published in publication PMC3656107, “Polymorphisms in the F8 Gene and MHC-II Variants as Risk Factors for the Development of Inhibitory Anti-Factor VIII Antibodies during the Treatment of Hemophilia A: A Computational Assessment” (PLoS Computational Biology, 2013).

Columns and labels:
[1] = molecular target: T1, MHC-II DRB1*07:01 (Homo sapiens, UniProt P01903+P01911, A100R/A102G/A103Q/D57E/D86V/E43K/F76Y/K127E/L162R/M171V/P40G/Q125H/Q99D/R33Q/R42Y/R54Q/S133A/S66F/T210M/V115G/Y107V/Y59L/Y89S); test: Cell-free REVEAL class II stability assay; settings: half-life of peptide-MHC-II complex (h, capped at 120) x Binding Score / 100, conformational ELISA
Protocol: (§1) We measured the half-life of each peptide-MHC-II complex using REVEAL peptide-MHC affinity assays developed by ProImmune Ltd. (Oxford, UK). On-rates of peptides were measured over a 96-hr period at 10°C. A unique positive control peptide was used for each MHC-II allele. Samples of assembling peptide-MHC complexes were taken at defined time points and snap-frozen in liquid nitrogen prior to analysis. Assembly of peptide-MHC complexes was detected using a conformational ELISA involving an anti-HLA antibody. On-rates were calculated by fitting data to a one-phase association curve: [drawing 1] To determine the off-rates of the peptides, samples of dissociating complexes were taken at defined time points and frozen in liquid nitrogen prior to analysis. Percent denaturation of peptide-MHC complexes was also detected using a conformational ELISA. Off-rates were calculated by fitting data to a one-phase dissociation curve: [drawing 2] On- and off-rate half-life values (t1/2) were calculated from the rate constant (k) using the following equation: [drawing 3] To obtain a normalized stability score, the half-life values were multiplied by the Binding Score (see above) and divided by 100.

[2] = molecular target: T2, MHC-II DRB1*04:01 (Homo sapiens, UniProt P01903+P01911, A100K/A169T/F76Y/I96L/K127E/L162R/M171V/N62H/P40V/Q125Y/R42H/S133A/S149N/S66Y/V115G/V209L/W38E); test: Cell-free REVEAL class II stability assay; settings: half-life of peptide-MHC-II complex (h, capped at 120) x Binding Score / 100, conformational ELISA
Protocol: as §1

[3] = molecular target: T3, MHC-II DRB1*15:03 (Homo sapiens, UniProt P01903+P01911, Y59H); test: Cell-free REVEAL class II stability assay; settings: half-life of peptide-MHC-II complex (h, capped at 120) x Binding Score / 100, conformational ELISA
T3 construct: purchased ProImmune
T3 sequence (P01903 26-254, other chains not shown): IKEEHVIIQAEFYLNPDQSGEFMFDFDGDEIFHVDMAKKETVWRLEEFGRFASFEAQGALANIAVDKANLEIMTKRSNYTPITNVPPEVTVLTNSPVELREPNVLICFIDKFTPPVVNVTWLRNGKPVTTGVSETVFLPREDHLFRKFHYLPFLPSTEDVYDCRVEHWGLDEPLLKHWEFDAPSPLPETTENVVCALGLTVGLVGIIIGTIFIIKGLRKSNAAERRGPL
Protocol: as §1

[4] = molecular target: T4, MHC-II DRB1*03:01 (Homo sapiens, UniProt P01903+P01911, A100K/A102G/A103R/A169T/F55Y/I96L/K41T/L162R/M171V/P40S/Q125H/Q178H/Q39Y/R42S/S66N/T106N/T262R/W38E/Y61H); test: Cell-free REVEAL class II stability assay; settings: half-life of peptide-MHC-II complex (h, capped at 120) x Binding Score / 100, conformational ELISA
T4 sequence (P01903 26-254 limits assumed, other chains not shown): as the sequence (P01903 26-254, other chains not shown) above
Protocol: as §1

[5] = molecular target: T5, MHC-II DRB1*15:01 (Homo sapiens, UniProt P01903+P01911); test: Cell-free REVEAL class II stability assay; settings: half-life of peptide-MHC-II complex (h, capped at 120) x Binding Score / 100, conformational ELISA
T5 construct: purchased ProImmune
Protocol: as §1

[6] = molecular target: T6, MHC-II DRB1*11:01 (Homo sapiens, UniProt P01903+P01911, A100R/A169T/A87E/I96F/K41T/L162R/M171V/P40S/Q125H/Q178H/Q39Y/Q99D/R42S/S66Y/T262R/V115G/W38E); test: Cell-free REVEAL class II stability assay; settings: half-life of peptide-MHC-II complex (h, capped at 120) x Binding Score / 100, conformational ELISA
T6 sequence (P01903 26-254 limits assumed, other chains not shown): as the sequence (P01903 26-254, other chains not shown) above
Protocol: as §1

[7] = molecular target: T1, MHC-II DRB1*07:01; test: Cell-free REVEAL class II binding assay; settings: signal of test peptide as percentage of allele-specific positive control peptide, fluorescence, conformation-specific monoclonal antibody
Excerpt: (§2) We used a proprietary high throughput, REVEAL binding assay (ProImmune, www.proimmune.com) to estimate the binding of individual test peptides to the following MHC-II variants: DRB1*03:01, DRB1*04:01, DRB1*07:01, DRB1*11:01, DRB1*15:01 and DRB1*15:03 [28]. Detection of a peptide binding to each MHC-II protein is based on the presence or absence of the native conformation of the MHC-peptide complex. The peptide-MHC-II complex is detected by an increase in a fluorescence signal due to the binding of a specific monoclonal antibody. Each test-peptide is given a score relative to a positive control peptide, which is a known T-cell epitope for that MHC-II molecule. The score is reported quantitatively as a percentage of the signal generated by the test peptide compared with the positive control peptide. Assay performance is evaluated by including in each set of measurements an intermediate control peptide which is known to bind the MHC-II molecule but with a lower affinity than the positive control peptide. Note that the positive control peptide used to determine the binding score is different from the positive control peptides depicted in the figures, which are known T-cell epitopes identified in the FVIII molecule.

[8] = molecular target: T2, MHC-II DRB1*04:01; test: Cell-free REVEAL class II binding assay; settings: signal of test peptide as percentage of allele-specific positive control peptide, fluorescence, conformation-specific monoclonal antibody
Excerpt: as §2

[9] = molecular target: T3, MHC-II DRB1*15:03; test: Cell-free REVEAL class II binding assay; settings: signal of test peptide as percentage of allele-specific positive control peptide, fluorescence, conformation-specific monoclonal antibody
Excerpt: as §2

[10] = molecular target: T4, MHC-II DRB1*03:01; test: Cell-free REVEAL class II binding assay; settings: signal of test peptide as percentage of allele-specific positive control peptide, fluorescence, conformation-specific monoclonal antibody
Excerpt: as §2

[11] = molecular target: T5, MHC-II DRB1*15:01; test: Cell-free REVEAL class II binding assay; settings: signal of test peptide as percentage of allele-specific positive control peptide, fluorescence, conformation-specific monoclonal antibody
Excerpt: as §2

[12] = molecular target: T6, MHC-II DRB1*11:01; test: Cell-free REVEAL class II binding assay; settings: signal of test peptide as percentage of allele-specific positive control peptide, fluorescence, conformation-specific monoclonal antibody
Excerpt: as §2

Row | Sequence | Stability Index [1] | Stability Index [2] | Stability Index [3] | Stability Index [4] | Stability Index [5] | Stability Index [6] | Binding Score [7] [%] | Binding Score [8] [%] | Binding Score [9] [%] | Binding Score [10] [%] | Binding Score [11] [%] | Binding Score [12] [%]
1 | MKVTGVTTQGVKSLL [synthetic wild type FVIII 15 mer peptide, region of ns-SNP M2238V] | 0.0 | 0.8 | 0.0 | 0.0 | 0.8 | 0.0 | 0.0 | 7.8 | 0.0 | 0.0 | 1.4 | 0.1
2 | YNIYPHGITDVRPLY [synthetic wild type FVIII 15 mer peptide, region of ns-SNP R484H] | 0.1 | 0.2 | 0.1 | 0.0 | 2.0 | 1.1 | 0.1 | 2.1 | 0.1 | 0.2 | 40.8 | 35.8
3 | HKMVYEDTLTLFPFS [synthetic wild type FVIII 15 mer peptide] | 0.0 | 5.5 | 0.1 | 14.2 | 2.9 | 0.2 | 0.0 | 24.2 | 0.1 | 56.5 | 2.4 | 5.4
4 | PPLLTRYLRIHPQSW [synthetic wild type FVIII 15 mer peptide] | 8.4 | 0.9 | 26.0 | 0.0 | 483.9 | 5.9 | 7.0 | 9.6 | 21.7 | 0.0 | 403.3 | 42.2
5 | QKTMKVTGVTTQGVK [synthetic wild type FVIII 15 mer peptide, region of ns-SNP M2238V] | 0.0 | 0.5 | 0.0 | 0.0 | 0.5 | 0.0 | 0.0 | 6.6 | 0.0 | 0.0 | 0.8 | 0.1
6 | RIHPQSWVHQIALRM [synthetic wild type FVIII 15 mer peptide] | 2.6 | 12.6 | 0.1 | 0.0 | 10.0 | 4.5 | 2.1 | 54.3 | 1.4 | 0.0 | 8.3 | 74.9
7 | TKSDPRCLTRYYSSF [synthetic wild type FVIII 15 mer peptide] | 0.0 | 0.1 | 1.6 | 2.4 | 45.5 | 0.8 | 0.0 | 0.8 | 26.8 | 12.6 | 37.9 | 23.1
8 | YPHGITDVRPLYSRR [synthetic wild type FVIII 15 mer peptide, region of ns-SNP R484H] | 0.1 | 0.0 | 0.1 | 5.2 | 0.5 | 1.2 | 0.1 | 0.1 | 0.1 | 4.8 | 0.4 | 46.7
9 | SQFIIMYSLDGKKWQ [synthetic wild type FVIII 15 mer peptide] | 0.0 | 11.8 | 16.4 | 0.5 | 1746.5 | 27.9 | 0.0 | 38.1 | 14.6 | 4.8 | 1455.4 | 100.8
10 | SRPYNIYPHGITDVR [synthetic wild type FVIII 15 mer peptide, region of ns-SNP R484H] | 0.0 | 0.0 | 0.1 | 0.0 | 0.1 | 0.4 | 0.0 | 0.2 | 0.2 | 0.1 | 0.1 | 12.0
11 | RQNVEGSYDGAYAPV [synthetic wild type FVIII 15 mer peptide, region of ns-SNP D1241E] | 0.0 | 0.0 | 0.0 | 0.0 | 0.0 | 0.0 | 0.0 | 0.0 | 0.0 | 0.0 | 0.0 | 0.1
12 | PWFAHRTPMPKIQNV [synthetic wild type FVIII 15 mer peptide, region of ns-SNP R776G] | 3.2 | 0.8 | 0.0 | 0.1 | 0.4 | 0.5 | 2.7 | 6.4 | 0.2 | 0.1 | 4.7 | 4.9
